Results on one molecule are retold here after ChEMBL document CHEMBL5380814, “Targeting Receptor-Interacting Protein Kinase 1 by Novel Benzothiazole Derivatives: Treatment of Acute Lung Injury through the Necroptosis Pathway” (J Med Chem, 2023).

Calls of active or inactive are those of the source. The rule behind the calls is not given here.

In one assay the test system is Mus musculus. Nature of the assay: In vivo anti-inflammatory activity in NNK induced induced C57BL/6J ALI mouse model assessed as decrease in lung TNF-alpha mRNA level pretreated at 25 to 100 mg/kg, ip for 1 hr followed by NNK administration. As to conditions: dose 25-100 mg/kg. It is filed as functional, organism-based.
Assay [1] relates to HT-29. Kind of assay: Anti-necroptotic activity in human HT-29 cells assessed as protection against human TNFalpha/Smac mimetic induced necroptosis preincubated with compound upto 10 uM for 16 to 24 hrs followed by TS stimulation for 36 hrs measured by cell-titre glo luminescent cell viability assay. It is filed as functional, cell-based. As to conditions: time 52-60 hrs.
Assay [2] deals with HT-29. Nature of the assay: Anti-necroptotic activity in human HT-29 cells assessed as inhibition of human TNFalpha/Smac mimetic/Z-VAD-FMK induced necroptosis preincubated with compound for 16 to 24 hrs followed by TSZ stimulation for 12 hrs measured by cell-titre glo luminescent cell viability assay. In kind it is functional, cell-based.

For orientation: EC50 means the midpoint of the concentration-response curve. As to `CCS(=O)(=O)NC1CCC(C(=O)Nc2nc3cc(F)c(Oc4ccc(F)c(NC(=O)Cc5cccc(C(F)(F)F)c5)c4)cc3s2)CC1` (stereo not drawn), in the assay with Mus musculus, the outcome was Active. Further, the outcome in the assay with HT-29 [1] was inactive. Besides, the EC50 in the assay on HT-29 [2] was determined as 22.4 nM.
